Reference: patent publication US12568982B2, “Systems for retaining potency in an infused beverage” (Vertosa Inc., priority 2020, dated 2026)

Assays:
Assay type in all cases: physicochemical
[1] = THC potency loss in glass bottle with child-resistant cap at room temperature
Description: The concentration of the antioxidant was studied to ensure the antioxidant will last long enough to protect against THC degradation.

[2] = Oil-phased versus water-phased antioxidants, THC potency loss at 40° C.; conditions: polysorbate emulsion, antioxidant 0.01%, glass bottle with crown cap
Description: There are two major types of antioxidants depending on their solubility: oil-phased antioxidants and water-phased antioxidants. The oil-phased antioxidants usually exist within the emulsion droplet and water-phased antioxidants are usually added during beverage production. It was believed that both types of antioxidants should work since they follow similar mechanisms: both function as a sacrificial agent to be oxidized prior to oxidation of the API, or they function as chelating agents where they scavenge the metal ions that catalyze oxidation. […] An emulsion was produced using polysorbate, shown as Emulsion 1 in Table 3. The antioxidant concentration was targeted at 0.01%.

[3] = Water-soluble antioxidant standard protocol, THC potency decay at 40° C.; conditions: for THC potency loss at 10 weeks with combined antioxidants: Polysorbate Emulsion 1
Method: The study was done with standard protocol: 20 mg THC nanoemulsion was diluted in 12 oz purified water into an amber glass bottle which was finished with a crown cap. The nanoemulsion was produced using polysorbate as an emulsifier with 50 nm droplet size (See Emulsion 1 from Table 3). The pH of the solution was adjusted to 4.0. The water-soluble antioxidants were added into the final solution at 0.005% (50 ppm).
All the testing above was based on the THC nanoemulsion made with polysorbate as an emulsifier (see Emulsion 1 from Table 3). Two other THC emulsions were produced with polyglycerol and Q-Naturale (see Emulsion 3 and 4 from […]).
The three oil soluble antioxidants were all targeted at 0.01% (100 ppm).

[4] = Contact angle of liquids on aluminum can liner (hydrophobicity study); conditions: Krüss contact angle machine; flattened liner side of aluminum can
Method: For hydrophobicity studies, a Krüss contact angle machine was used. An aluminum can was cut in half, and the flattened liner side was used as the testing surface. The contact angle of water, coconut oil, coconut oil+THC at different ratios, and coconut oil+CBD at different ratios on the liner was measured.

[5] = Terpene oxidation with ascorbic acid or EDTA at 40° C.
Description: However, nearly all terpenes can be oxidized and some can oxidize faster than others. When terpenes are put into a ready-to-drink beverage, the chemical degradation that can be caused by oxidation needs to be considered. When the oxidation happens, it not only diminishes the designed effect of the product, but it also creates unknown by-products that can be potentially harmful to consume. Oxidation rate of α-pinene and limonene was compared with the addition of ascorbic acid and EDTA.

[6] = 20 mg THC polysorbate nanoemulsion in 12 oz water, pH 4.0, amber glass, 40° C., antioxidant 0.005% (50 ppm)
[7] = oil-soluble antioxidant at 100 ppm + 10 ppm EDTA
[8] = oil-soluble antioxidant at 100 ppm + 50 ppm Ascorbic Acid

## O=C1O[C@H]([C@@H](O)CO)C(O)=C1O [Ascorbic Acid, ascorbic acid]
[1]; Ascorbic acid 20 ppm, 6 months at room temperature
  THC potency loss %: 21%
[1]; Ascorbic acid 20 ppm, 12 months at room temperature
  THC potency loss %: 35%
[1]; Ascorbic acid 50 ppm, 6 months at room temperature
  THC potency loss %: 7%
[1]; Ascorbic acid 50 ppm, 12 months at room temperature
  THC potency loss %: 10%
[1]; Ascorbic acid 200 ppm, 6 months at room temperature
  THC potency loss %: 3%
[1]; Ascorbic acid 200 ppm, 12 months at room temperature
  THC potency loss %: 7%
[2]
  THC loss at 10 weeks: 17%

## O=C(O)CN(CCN(CC(=O)O)CC(=O)O)CC(=O)O [EDTA, Ethylenediaminetetraacetic acid]
[1]; EDTA 5 ppm, 6 months at room temperature
  THC potency loss %: 16%
[1]; EDTA 5 ppm, 12 months at room temperature
  THC potency loss %: 39%
[1]; EDTA 10 ppm, 6 months at room temperature
  THC potency loss %: 8%
[1]; EDTA 10 ppm, 12 months at room temperature
  THC potency loss %: 12%
[1]; EDTA 20 ppm, 6 months at room temperature
  THC potency loss %: 6%
[1]; EDTA 20 ppm, 12 months at room temperature
  THC potency loss %: 9%

## O=C(O)c1cc(O)c(O)c(O)c1 [Gallic acid]
[3]; [6]
  THC loss at 4 weeks: 10%
  THC loss at 10 weeks: 27%

## CCCOC(=O)c1cc(O)c(O)c(O)c1 [Propyl Gallate, propyl gallate]
[3]; [7]
  THC potency loss at 10 weeks with combined antioxidants: 6%
[3]; [8]
  THC potency loss at 10 weeks with combined antioxidants: 7%

## CCCCCc1cc(O)c2c(c1)OC(C)(C)[C@@H]1CCC(C)=C[C@@H]21 [THC, Tetrahydrocannabinol]
[1]; No antioxidant, 6 months at room temperature, child resistant cap type 1
  THC potency loss %: 56%
[1]; No antioxidant, 12 months at room temperature, child resistant cap type 1
  THC potency loss %: 78%

## O [Water]
[4]
  Contact Angle on Liner: 85°

## C=C(C)[C@H]1CC=C(C)CC1 [limonene]
[5]; 10 ppm EDTA
  2-weeks potency loss at 40° C.: 8%
[5]; 50 ppm ascorbic acid
  2-weeks potency loss at 40° C.: 7%
[5]; No antioxidant
  2-weeks potency loss at 40° C.: 68%

## C=CC(C)(O)CCC=C(C)C (stereo not drawn) [linalool]
[5]; 10 ppm EDTA
  2-weeks potency loss at 40° C.: 9%
[5]; 50 ppm ascorbic acid
  2-weeks potency loss at 40° C.: 6%
[5]; No antioxidant
  2-weeks potency loss at 40° C.: 46%

## C=CC(=C)CCC=C(C)C [myrcene]
[5]; 10 ppm EDTA
  2-weeks potency loss at 40° C.: 6%
[5]; 50 ppm ascorbic acid
  2-weeks potency loss at 40° C.: 3%
[5]; No antioxidant
  2-weeks potency loss at 40° C.: 38%

## CC1=CCC2CC1C2(C)C (stereo not drawn) [α-pinene]
[5]; 10 ppm EDTA
  2-weeks potency loss at 40° C.: 6%
[5]; 50 ppm ascorbic acid
  2-weeks potency loss at 40° C.: 4%
[5]; No antioxidant
  2-weeks potency loss at 40° C.: 57%

## tocopherol [Vitamin E (tocopherol)]
[3]; [7]
  THC potency loss at 10 weeks with combined antioxidants: 7%
[3]; [8]
  THC potency loss at 10 weeks with combined antioxidants: 6%
[2]
  THC loss at 4 weeks: 25%
  THC loss at 10 weeks: 46%
